Two molecules from patent publication US7879792B2, “Synthetic peptide inhibitors of thrombin and thrombin activation of protease activated receptors 1 and 4” (The Regents of the University of Michigan, priority 2005, dated 2011) can be followed below.

Where a SMILES comes first, the peptide text is derived from it.

Test [1] deals with normal human citrated plasma. Kind of test: thrombin clotting time (TCT). Type of test: biochemical. The note with it: 1 nM thrombin. The protocol:
The influence of the various peptide formulations used in the present invention on established coagulation-based assays was determined. The activated partial thromboplastin time (APTT) is performed by mixing 0.05 ml normal human citrated plasma with 0.05 ml activated partial thromboplastin reagent purchased from Organon Teknika, Research Triangle Park, NC in the absence or presence of a peptide inhibitor. After incubation for 5 min at 37° C., the mixture is recalcified with 0.05 ml of 30 mM calcium chloride and the time to clot formation is measured in an Amelung KC4A instrument (Sigma Chemical Corp, St. Louis, Mo.) (Hasan et al. Thrombosis and Haemostasis. 82, 1182-1187 (1999)). The prothrombin time (PT) is performed by mixing 0.05 ml normal human citrated plasma with 0.05 ml Simplastin (Organon Teknika, Research Triangle Park, NC) followed by incubation for 3 min at 37° C. in the absence or presence of a peptide inhibitor. At the addition of 0.05 ml of 30 mM calcium chloride, the time to clot formation is measured in an KC4A instrument (Sigma Chemical Corp, St. Louis, Mo.) (Hasan et al. Thrombosis and Haemostasis. 82, 1182-1187 (1999)). The thrombin clotting time (TCT) is performed by adding 0.1 ml normal human citrated plasma in the absence or presence of a peptide inhibitor and 0.05 ml of a α-thrombin solution such that the final concentration of the thrombin in the entire mixture was 1 nM. Upon addition of the thrombin, the time to clot formation is measured in an KC4A instrument (Sigma Chemical Corp, St. Louis, Mo.).

In test [2] the target is T1, recombinant extracellular domain of human PAR1 (rPAR1EC) (Homo sapiens, UniProt P25116).
T1 construct: A portion of the extracellular domain of human PAR1 (Ala^26-Ser^99) (rPAR1EC) was expressed in Escherichia coli; KSI fusion protein (cleaved yes); His tag (cleaved yes); made in house; host or cells: E. coli BL21(DE3), pET31b
T1 sequence (P25116 26-99): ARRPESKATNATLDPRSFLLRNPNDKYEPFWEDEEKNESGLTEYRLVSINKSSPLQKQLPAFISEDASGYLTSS
Kind of test: inhibition of RPPGFK-biotin binding to rPAR1EC. The note with it: 15 μM RPPGFK-biotin.

The target of test [3] is T2, recombinant extracellular domain of human PAR4 (rPAR4EC) (Homo sapiens, UniProt Q96RI0).
T2 construct: starting with Gly^18, the first amino acid after the signal peptide is removed, and finishing with Arg^78; KSI fusion protein (N, cleaved yes); His-tag (N, cleaved yes); made in house; host or cells: E. coli 'BLD (DE3)' cells, pET31b; cDNA from HEL cell mRNA
T2 sequence (Q96RI0 18-78): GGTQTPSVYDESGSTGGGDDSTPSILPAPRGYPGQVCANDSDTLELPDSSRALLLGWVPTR
Kind of test: inhibition of RPPGFK-biotin binding to rPAR4EC. The note with it: 15 μM RPPGFK-biotin. The protocol: Investigations were performed to determine if the compounds in the present invention interact with the exodomain of human PAR4. The extracellular fragment of human PAR4 has been expressed in bacteria. Human erythroleukemia (HEL) cells were used as a source for PAR4 mRNA. The level of PAR4 mRNA was substantially higher in HEL cells than washed human platelets. […] These primers give a 204 basepair fragment which codes for a 61 amino acid hPAR4 protein starting with Gly^18, the first amino acid after the signal peptide is removed, and finishing with Arg^78, the last amino acid of the extracellular fragment (Xu et al. Proc. Natl. Acad. Sci. 95, 6642-6646 (1998)). The pET31b-PAR4 vector after cloning was used to transform BLD (DE3) cells to express the recombinant protein. After IPTG stimulation, the recombinant protein was isolated from the bacterial lysate on a nickel affinity column followed by treatment with CNBr to remove the KSI fusion protein and His-tag on its amino terminal end. The isolated recombinant extracellular domain of PAR4 (rPAREC) is about 9 kDa on 16.5% Tris-Tricine SDS-PAGE. The recombinant protein is recognized as being human PAR4 by detection with an antibody prepared from a peptide (S^41[…]^52) (SEQ ID NO:9) from human PAR4EC. Recombinant PAR4EC was linked to microtiter plate cuvette wells. Goat polyclonal antibody to human PAR1, PAR3, or PAR4 was incubated with the coated microtiter plate cuvette wells and antibody binding was detected. Only antibody to PAR4 detected rPAR4EC linked to the microtiter plate wells. […] These studies indicate that peptides of the present invention also physically interact with human PAR4.

In test [4] the target is γ-thrombin. Kind of test: inhibition of γ-thrombin hydrolysis of chromogenic substrate. The conditions noted are these: read-out: Ki (μM) + SD, γIIa (2 nM); gamma-thrombin 2 nM, Sar-Pro-Arg-paranitroanilide. In kind it is biochemical, human.
Test [5] concerns γ-thrombin-induced platelet aggregation. Kind of test: γ-thrombin-induced platelet aggregation in human platelet-rich plasma. Type of test: cell-based. The note with it: for Concentration of Peptide [mM] That Gives 100% Inhibition: 40 nM human gamma thrombin, human platelet-rich plasma. As for the experimental part:
Fresh whole blood was collected and mixed with 0.013 M sodium citrate and platelet-rich plasma was prepared according to the method of Meloni et al., J. Biol. Chem. 266, 6786 (1991). Platelet-rich plasma with a normalized platelet count between 2-2.5×10^8 platelets/ml was added to a cuvette of an aggregometer (Chronlog Corp., Havertown, Pa.), standardized using the protocol of Meloni et al., supra. Peptides to be examined were added to the cuvette and the mixture stabilized for a few moments. Once the baseline was stabilized, γ-thrombin (10-70 nM) (Haematologic Technologies, Essex Junction, Vt.) was added to determine the minimal concentration of the agonist necessary to achieve full platelet aggregation. All investigations with peptides were performed using threshold concentrations of γ-thrombin. Aggregation was allowed to proceed for 5 minutes before stopping.
Table III is a tabulation of the library of peptides prepared and their influence on γ-thrombin-induced platelet aggregation in platelet-rich plasma. […] The numbers in the column represent the minimal concentration (mM) of the peptide that blocked 100% γ-thrombin-induced platelet aggregation of platelets in human platelet-rich plasma.
Human platelet samples were stimulated with 40 nM human gamma thrombin in each experiment.

Turning to `Cc1ccc(C[C@H](NC(=O)[C@@H](C)NC(=O)[C@@H]2CCCN2C(=O)[C@@H]2C[C@@H]3CCCC[C@@H]3N2C(=O)[C@H](N)CCCNC(=N)N)C(N)=O)cc1` [rOicPaF(p-Me), D-Arg-Oic-Pro-D-Ala-Phe(p-Me)] (HELM PEPTIDE1{[dR].[O=C([C@@H]1C[C@@H]2CCCC[C@@H]2N1[*:1])[*:2]].P.[dA].[Cc1ccc(C[C@H](N[*:1])C(=O)[*:2])cc1].[am]}$$$$V2.0), the “peptide concentration with significant prolongation (p<0.05) of the TCT” value in test [1] came out at 0.78 µM. Also, the entries for the “RPPGFK-biotin displaced from rPAR1 exodomain” value in test [2] (30 μM peptide), in test [2] (300 μM peptide) and in test [2] (1000 μM (1 mM) peptide) were 23%, 52% and 69%, respectively. Moreover, the “RPPGFK-biotin displaced from rPAR4 exodomain” value in test [3] (30 μM peptide) was 19%; in test [3] (300 μM peptide) it was 49%; in test [3] (1000 μM peptide), 63%. In addition, in test [4], the Ki was found to be 54.3 ± 16 µM. Moreover, the “Concentration of Peptide [mM] That Gives 100% Inhibition” value in test [5] was found to be 0.016 mM. For the same molecule, the “concentration that abolished γ-thrombin-induced platelet aggregation” value in test [5] (40 nM γ-thrombin) is reported as “greater than or equal to 16 μM”. Also, in test [5] (8 μM peptide, 40 nM γ-thrombin), the γ-thrombin-induced platelet aggregation result was “returned to normal”.
Turning to `N=C(N)NCCC[C@@H](N)C(=O)N1[C@H](C(=O)N2CCC[C@H]2C(=O)NCC(=O)N[C@@H](Cc2ccccc2)C(N)=O)C[C@@H]2CCCC[C@@H]21` [rOicPGF, D-Arg-Oic-Pro-Gly-Phe, reference compound] (HELM PEPTIDE1{[dR].[O=C([C@@H]1C[C@@H]2CCCC[C@@H]2N1[*:1])[*:2]].P.G.F.[am]}$$$$V2.0), the “RPPGFK-biotin displaced from rPAR1 exodomain” value in test [2] (1000 μM (1 mM) peptide) turned out to be 50%. For the same molecule, the “RPPGFK-biotin displaced from rPAR4 exodomain” value in test [3] (1 μM peptide (so in the source)) amounted to 50%. For the same molecule, the “Concentration of Peptide [mM] That Gives 100% Inhibition” value in test [5] is listed as 0.142 mM.

In general, Ki refers to the dissociation constant of the complex between target and ligand, obtained from inhibition or displacement.
